Data reported in the NIST ThermoML archive (doi:10.1016/j.fluid.2015.05.003).
± gives the expanded uncertainty stated by the source.

Settings: 298.15 K; 101.33 kPa; Liquid

| SMILES | mass density |
| --- | --- |
| CCCCCCCC[n+]1ccc2ccccc2c1.N#C[S-] [2-octylisoquinolinium thiocyanate] | 1061.69 ± 1.2 kg/m3 |
| CCCCCC[n+]1ccc2ccccc2c1.N#C[S-] [2-hexylisoquinolinium thiocyanate] | 1081.34 ± 1.2 kg/m3 |
